Target: T1, AbyV (Micromonospora maris, UniProt F4F6Q5)
T1 construct: N-terminal His6 tag (pOPINF::abyV), E. coli BL21(DE3)
Experiment: titration of substrate into buffered AbyV solution
Format: binding

T1 sequence (F4F6Q5 entry or part of it): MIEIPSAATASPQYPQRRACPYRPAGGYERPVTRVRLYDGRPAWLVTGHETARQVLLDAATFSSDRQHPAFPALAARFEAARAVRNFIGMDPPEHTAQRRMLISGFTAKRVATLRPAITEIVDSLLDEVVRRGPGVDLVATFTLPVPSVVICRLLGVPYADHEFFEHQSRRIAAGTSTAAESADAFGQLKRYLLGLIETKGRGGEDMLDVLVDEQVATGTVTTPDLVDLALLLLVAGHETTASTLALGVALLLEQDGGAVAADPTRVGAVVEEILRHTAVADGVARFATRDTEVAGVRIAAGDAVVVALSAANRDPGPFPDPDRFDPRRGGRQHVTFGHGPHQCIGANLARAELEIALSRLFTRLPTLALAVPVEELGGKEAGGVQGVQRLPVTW

In the case of `C[C@@H]1C[C@H](C)C(=O)/C=C/[C@@H]2C=C[C@H](C)C[C@@]23OC(=O)C(=C3O)C1=O` (mixture of isomers) [compound 3, spirotetronate 3], the Kd is reported as 34 ± 7 µM.
